Test system: subjects with Acute Migraines
Assay: Study 303 (BHV3000-303, NCT03461757): Phase 3 double-blind placebo-controlled trial, rimegepant 75 mg ODT, acute treatment of migraine
Format: in vivo, human
Experimental: Clinical Trial—BHV3000-303: Phase 3: Double-Blind, Randomized, Placebo-Controlled, Safety and Efficacy Trial of BHV-3000 (Rimegepant) Orally Discintegrating Tablet (ODT) for the Acute Treatment of Migraine (ClinicalTrials.gov Identifier: NCT03461757) A phase 3 clinical study was conducted with 1812 participants, as follows. The purpose of this study is to compare the efficacy of BHV-3000 (rimegepant ODT) versus placebo in subjects with Acute Migraines. Study Design • Study Type: Interventional (Clinical Trial) • Actual Enrollment: 1812 participants • Allocation: Randomized • Intervention Model: Parallel Assignment • Masking: Triple (Participant, Care Provider, Investigator) • Primary Purpose: Treatment • Official Title: BHV3000-303: Phase 3, Double-Blind, Randomized, Placebo Controlled, Safety and Efficacy Trial of BHV-3000 (Rimegepant) Orally Disintegrating Tablet (ODT) for the Acute Treatment of Migraine • Actual Study Start Date: Feb. 27, 2018 • Actual Primary Completion Date: Oct. 8, 2018 • Actual Study Completion Date: Oct. 15, 2018 Arms and Interventions Outcome Measures Primary Outcome Measures: 1. Pain freedom of rimegepant compared with placebo in the acute treatment of migraine will be measured using the number of evaluable subjects that report no pain at 2 hours post-dose. [Time Frame: Two hours post dose] Pain will be measured on a 4 point Likert scale (0=none, 1=mild, 2=moderate, 3=severe) 2. Freedom from the most bothersome symptom (MBS) of rimegepant compared with placebo will be measured using the number of evaluable subjects that report the absence of their MBS at 2 hours post-dose. [Time Frame: Two hours post dose] The MBS (nausea, phonophobia or photophobia) will measured using a binary scale (0=absent, 1=present). Secondary Outcome Measures: 1. To measure rimegepant compared to placebo on Pain Relief, at 2 hours post-dose, that report a pain level of moderate or severe at baseline and then report a pain level of none or mild. [Time Frame: 2 hours post-dose] Pain Relief as measured by a 4 point numeric rating scale (None, Mild, Moderate, Severe) 2. Functional disability scale [Time Frame: 2 hour post-dose] Subjects self-report “normal” on the functional disability scale 3. […] [Time Frame: 2 hours-24 hours post-dose] Sustained Pain Relief as measured by a 4 point numeric rating scale (None, Mild, Moderate, Severe) 4. […] [Time Frame: 2 to 24 hours post dose] Most bothersome symptom 5. To measure rimegepant compared to placebo on the probability of requiring rescue medication will be assessed using the number of subjects that take rescue medication within […] administration of study medication (BHV3000 or placebo). [Time Frame: up to 24 hours post-dose] Requiring Rescue Medication 6. Sustained ability to function at a normal level as measured by the Functional disability scale [Time Frame: 2 to 24 hours post dose] Subjects self-report “normal” on the functional disability scale 7. […] [Time Frame: 2 hours-48 hours post-dose] Sustained Pain Relief as measured by a 4 point numeric rating scale (None, Mild, Moderate, Severe) 8. Rimegepant compared to placebo on pain freedom from most bothersome symptom from 2-48 hours post dose. [Time Frame: 2 to 48 hours post dose] Most bothersome symptom 9. Sustained ability to function at a normal level as measured by the Functional disability scale [Time Frame: 2 to 48 hours post dose] Subjects self-report “normal” on the functional disability scale 10. Rimegepant compared to placebo by tabulating the number of subjects that report the absence of photophobia at 2 hours post-dose in the subset of subjects that reported the presence of photophobia at headache baseline [Time Frame: 2 hours post-dose] Freedom from Photophobia 11. Functional disability scale [Time Frame: 90 minutes post dose] Subjects self-report “normal” on the functional disability scale 12. […] [Time Frame: 90 minutes post dose] Pain Relief as measured by a 4 point numeric rating scale (None, Mild, Moderate, Severe) 13. […]

[1] = Study 303, n = 669, exploratory
[2] = Study 303, single 75 mg ODT, N = 669

patients with LFTs >3×ULN (Study 303): one
SMILES: N[C@@H]1c2cccnc2[C@H](OC(=O)N2CCC(n3c(=O)[nH]c4ncccc43)CC2)CC[C@H]1c1cccc(F)c1F [Rimegepant, [(5S,6S,9R)-5-amino-6-(2,3-difluorophenyl)-6,7,8,9-tetrahydro-5H-cyclohepta[b]pyridin-9-yl] 4-(2-oxo-3H-imidazo[4,5-b]pyridin-1-yl)piperidine-1-carboxylate]
Freedom from MBS at 2 hours, Difference (rimegepant minus placebo) (Study 303): 8.3%
Pain Freedom at 2 hours, Difference (rimegepant minus placebo) (Study 303): 10.3%
incidence of any single adverse event (AE) in the rimegepant group (Study 303): ≤ 1.6%
Sustained Pain Relief 3 to 48 hrs (Study 303, n = 669): 49.9%
Sustained Pain Relief 3 to 24 hrs [1]: 56.4%
Sustained Pain Relief 4 to 24 hrs [1]: 61.7%
Sustained Pain Relief 4 to 48 hrs [1]: 54.7%
Pain Relief @ 2 hours (Study 303, secondary 1): 59.3%
Functional Disability at 2 hours (Study 303, secondary 2, self-report normal): 38.1%
SP Relief (Sustained Pain Relief) 2 to 24 hours (Study 303, secondary 3): 47.8%
MBS 2 to 24 (Study 303, secondary 4, sustained freedom from MBS): 27.1%
Prob of Rescue Meds in 24 hours (Study 303, secondary 5): 14.2%
Functional Disability 2 to 24 (Study 303, secondary 6): 29.6%
SP Relief (Sustained Pain Relief) 2 to 48 hours (Study 303, secondary 7): 42.2%
MBS 2 to 48 (Study 303, secondary 8): 23.2%
Functional Disability 2 to 48 (Study 303, secondary 9): 26.0%
Photophobia @ 2 hours (Study 303, secondary 10, freedom from photophobia): 33.4%
Functional Disabilty @ 90 minutes (Study 303, secondary 11): 30.2%
Pain Relief @ 90 minutes (Study 303, secondary 12): 49.6%
SP Freedom 2 to 24 hours (Study 303, secondary 13): 15.7%
MBS Freedom at 90 minutes (Study 303, secondary 14): 27.4%
Pain Freedom @ 90 minutes (Study 303, secondary 15): 15.1%
Phonophobia @ 2hours (Study 303, secondary 16, freedom from phonophobia): 41.7%
SP Freedom 2 to 48 hours (Study 303, secondary 17): 13.5%
Pain Relief at 60 minutes (Study 303, secondary 18): 36.8%
Functional Disability at 60 minutes (Study 303, secondary 19): 22.3%
Nausea @ 2 hours (Study 303, secondary 20, freedom from nausea): 51.0%
Pain Relpase 2 to 48 (Study 303, secondary 21): 36.6%
Freedom from MBS at 2 hours [2]: 35.1%
Pain Freedom at 2 hours [2]: 21.2%
clinical benefit through 48 hours on pain relief, pain freedom, most bothersome symptom, functional disability (Study 303, single dose, versus placebo): Lasting clinical benefit
